From ChEMBL document CHEMBL1201862, “PubChem BioAssay data set” (2004)
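Each compound was tested at five concentrations against cells in 96-well plates for 48 hours. Here, GI50 denotes the concentration required for 50% inhibition of growth.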 Activity calls are given as the source filed them. Cut-off read from the data, not from the text of the source: active = GI50 up to about 1.1 µM and inactive = higher. Square brackets hold non-standard residues; d marks the D form. Peptide text beside a SMILES is read from it. * marks the point of attachment. Boc = CC(C)(C)OC(=O)*; Lac = C[CH](O)C(=O)O; OBn = c1ccc(CO*)cc1

How the values were obtained:
Test in all cases: NCI anticancer screen, dose series, 48 h
ACHN = test system: ACHN
SK-MEL-28 = test system: SK-MEL-28
OVCAR-4 = test system: OVCAR-4
KM12 = test system: KM12
SF-295 = test system: SF-295
HT-29 = test system: HT-29
IGROV-1 = test system: IGROV-1
K562 = test system: K562
CCRF-CEM = test system: CCRF-CEM
NCI-H460 = test system: NCI-H460
UACC-257 = test system: UACC-257
HOP-62 = test system: HOP-62
LOX IMVI = test system: LOX IMVI
OVCAR-3 = test system: OVCAR-3
RPMI-8226 = test system: RPMI-8226
U-251 = test system: U-251
HCT-116 = test system: HCT-116
MCF7 = test system: MCF7
Malme-3M = test system: Malme-3M
HOP-92 = test system: HOP-92

Compound | GI50 (ACHN) | GI50 (SK-MEL-28) | GI50 (OVCAR-4) | GI50 (KM12) | GI50 (SF-295) | GI50 (HT-29) | GI50 (IGROV-1) | GI50 (K562) | GI50 (CCRF-CEM) | GI50 (NCI-H460) | GI50 (UACC-257) | GI50 (HOP-62) | GI50 (LOX IMVI) | GI50 (OVCAR-3) | GI50 (RPMI-8226) | GI50 (U-251) | GI50 (HCT-116) | GI50 (MCF7) | GI50 (Malme-3M) | GI50 (HOP-92)
CC1CC2=C(S(=O)(=O)c3ccccc3)CC(S(=O)(=O)c3ccccc3)(S(=O)(=O)c3ccccc3)CC21 (stereo unspecified) | > 100 µM (inactive) | > 100 µM (inactive) | > 100 µM (inactive) | > 100 µM (inactive) | > 100 µM (inactive) | > 100 µM (inactive) | > 100 µM (inactive) | 38.7 µM (inactive) | 27.4 µM (inactive) | > 100 µM (inactive) | > 100 µM (inactive) | > 100 µM (inactive) | > 100 µM (inactive) | > 100 µM (inactive) | 88.1 µM (inactive) | 72.6 µM (inactive) | 21.9 µM (inactive) | – | – | –
COP(=O)(OC)C(N)Cc1c[nH]c2ccccc12 (stereo unspecified) | > 100 µM (inactive) | > 100 µM (inactive) | > 100 µM (inactive) | – | > 100 µM (inactive) | > 100 µM (inactive) | > 100 µM (inactive) | > 100 µM (inactive) | – | > 100 µM (inactive) | > 100 µM (inactive) | > 100 µM (inactive) | > 100 µM (inactive) | > 100 µM (inactive) | > 100 µM (inactive) | > 100 µM (inactive) | > 100 µM (inactive) | > 100 µM (inactive) | – | –
CC(OC(=O)C(Cc1ccccc1)NC(=O)C(Cc1ccccc1)NC(=O)OC(C)(C)C)C(=O)OCc1ccccc1 (stereo not drawn) (Boc-Phe-Phe-[Lac]-OBn; configuration not given here) | – | > 100 µM (inactive) | – | > 100 µM (inactive) | > 100 µM (inactive) | – | > 100 µM (inactive) | > 100 µM (inactive) | > 100 µM (inactive) | > 100 µM (inactive) | – | > 100 µM (inactive) | – | > 100 µM (inactive) | 94 µM (inactive) | > 100 µM (inactive) | > 100 µM (inactive) | 17.8 µM (inactive) | > 100 µM (inactive) | > 100 µM (inactive)
Nc1ccccc1C(=O)N/N=C1\C(=O)Nc2ccccc21 | 56.4 µM (inactive) | – | > 100 µM (inactive) | 88.5 µM (inactive) | > 100 µM (inactive) | > 100 µM (inactive) | 64 µM (inactive) | > 100 µM (inactive) | > 100 µM (inactive) | > 100 µM (inactive) | > 100 µM (inactive) | 43.6 µM (inactive) | – | > 100 µM (inactive) | – | 40.2 µM (inactive) | > 100 µM (inactive) | > 100 µM (inactive) | > 100 µM (inactive) | –
O=C1Nc2ccc(Cl)cc2/C1=C\c1c(Cl)nc2sccn12 | > 100 µM (inactive) | > 100 µM (inactive) | > 100 µM (inactive) | 2.25 µM (inactive) | 3.96 µM (inactive) | – | 8.51 µM (inactive) | 0.156 µM (active) | 10.6 µM (inactive) | 1.96 µM (inactive) | > 100 µM (inactive) | 13.9 µM (inactive) | 7.48 µM (inactive) | 3.32 µM (inactive) | 0.0514 µM (active) | 2.93 µM (inactive) | 4.23 µM (inactive) | – | > 100 µM (inactive) | > 100 µM (inactive)
CCC(=O)NC(Nc1cccc(F)c1)(C(F)(F)F)C(F)(F)F | > 100 µM (inactive) | > 100 µM (inactive) | > 100 µM (inactive) | > 100 µM (inactive) | > 100 µM (inactive) | > 100 µM (inactive) | > 100 µM (inactive) | > 100 µM (inactive) | 60 µM (inactive) | > 100 µM (inactive) | > 100 µM (inactive) | – | > 100 µM (inactive) | > 100 µM (inactive) | > 100 µM (inactive) | 90.6 µM (inactive) | > 100 µM (inactive) | > 100 µM (inactive) | – | > 100 µM (inactive)
CC1CC(C[N+](=O)[O-])CC2(C1)OCCO2 (stereo unspecified) | > 100 µM (inactive) | > 100 µM (inactive) | > 100 µM (inactive) | > 100 µM (inactive) | – | – | > 100 µM (inactive) | > 100 µM (inactive) | > 100 µM (inactive) | > 100 µM (inactive) | > 100 µM (inactive) | > 100 µM (inactive) | – | > 100 µM (inactive) | > 100 µM (inactive) | > 100 µM (inactive) | > 100 µM (inactive) | – | > 100 µM (inactive) | –
OC1CCOc2ccccc21 (stereo unspecified) | > 100 µM (inactive) | > 100 µM (inactive) | > 100 µM (inactive) | > 100 µM (inactive) | – | > 100 µM (inactive) | > 100 µM (inactive) | > 100 µM (inactive) | > 100 µM (inactive) | > 100 µM (inactive) | – | > 100 µM (inactive) | > 100 µM (inactive) | > 100 µM (inactive) | > 100 µM (inactive) | > 100 µM (inactive) | > 100 µM (inactive) | – | > 100 µM (inactive) | –
